Source: US10072011B2, “Substituted bridged urea analogs as sirtuin modulators” (GlaxoSmithKline Intellectual Property (No.2) Limited, priority 2014, dated 2018)

Target: T1, SIRT1 (Homo sapiens, UniProt Q96EB6)
T1 sequence (Q96EB6 1-747): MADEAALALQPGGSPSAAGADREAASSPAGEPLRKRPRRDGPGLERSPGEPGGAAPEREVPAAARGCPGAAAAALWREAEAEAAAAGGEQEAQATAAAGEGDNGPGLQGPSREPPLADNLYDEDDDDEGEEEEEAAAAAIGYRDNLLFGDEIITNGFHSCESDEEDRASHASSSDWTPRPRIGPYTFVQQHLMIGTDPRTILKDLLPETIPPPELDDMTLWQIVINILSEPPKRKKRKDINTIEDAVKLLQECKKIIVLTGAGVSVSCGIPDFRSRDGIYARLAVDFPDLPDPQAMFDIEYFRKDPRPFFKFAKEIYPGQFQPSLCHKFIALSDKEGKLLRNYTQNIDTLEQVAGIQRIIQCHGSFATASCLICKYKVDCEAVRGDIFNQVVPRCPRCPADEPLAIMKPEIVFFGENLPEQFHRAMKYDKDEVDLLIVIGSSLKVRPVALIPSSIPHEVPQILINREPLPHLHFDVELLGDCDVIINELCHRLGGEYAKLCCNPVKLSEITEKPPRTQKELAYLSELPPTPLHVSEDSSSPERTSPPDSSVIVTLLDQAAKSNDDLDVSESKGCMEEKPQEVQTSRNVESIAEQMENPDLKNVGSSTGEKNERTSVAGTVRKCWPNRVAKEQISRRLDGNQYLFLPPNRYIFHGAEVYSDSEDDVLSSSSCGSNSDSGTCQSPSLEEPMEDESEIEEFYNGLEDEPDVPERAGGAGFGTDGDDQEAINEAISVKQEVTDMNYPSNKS
Test: Trp mass spectrometry assay of SIRT1 activation (Ac-R-H-K-K(Ac)-W-NH2 peptide)
Assay type: biochemical
Conditions: Trp peptide 0.5 μM, 120 μM βNAD+, 10 nM SIRT1, 25 min at 25° C.; for Emax: 25 min, relative to control (100%), read-out: TRP MAX RESP (percent maximum fold activation)
Outline: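 Mass spectrometry read-out (OAADPR formed, or deacetylated Trp peptide) after a 25 min NAD-dependent deacetylation by E. coli-expressed His-SIRT1, stopped with formic acid.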

Structure (SMILES)	Emax	TRP Activity (EC1.5, concentration of test compound that results in 150% activation of SIRT1)
C=CCNC(=O)c1ccc2c(n1)N(C(=O)Nc1cc(OC[C@H](O)CO)ccn1)[C@H]1CCN2C1 [Example 178, (4S)—N7-allyl-N5-(4-((R)-2,3-dihydroxypropoxy)pyridin-2-yl)-3,4-dihydro-1,4-methanopyrido[2,3-b][1,4]diazepine-5,7(2H)-dicarboxamide]	> 150%	B (EC1.5 1-25 μM)
Cc1ccc(NC(=O)N2c3nc(C(=O)NCC4CC4)ccc3N3CC[C@H]2C3)nc1 [Example 111, (4S)—N7-(cyclopropylmethyl)-N5-(5-methylpyridin-2-yl)-3,4-dihydro-1,4-methanopyrido[2,3-b][1,4]diazepine-5,7(2H)-dicarboxamide]	> 150%	A (EC1.5<1 μM)
O=C(NCCCO)c1ccc2c(n1)N(C(=O)Nc1ccccn1)[C@H]1CCN2C1 [Example 218, (4S)—N7-(3-hydroxypropyl)-N5-(pyridin-2-yl)-3,4-dihydro-1,4-methanopyrido[2,3-b][1,4]diazepine-5,7(2H)-dicarboxamide]	> 150%	B (EC1.5 1-25 μM)
Cc1ncc(-c2ccnc(NC(=O)N3c4nc(C(=O)N[C@H](C)C(F)(F)F)c(Cl)cc4N4CC[C@H]3C4)c2)o1 [Example 281, (4S)-8-chloro-N5-(4-(2-methyloxazol-5-yl)pyridin-2-yl)-N7-((R)-1,1,1-trifluoropropan-2-yl)-3,4-dihydro-1,4-methanopyrido[2,3-b][1,4]diazepine-5,7(2H)-dicarboxamide]	> 150%	B (EC1.5 1-25 μM)
O=C(NC[C@@H]1CCCO1)c1ccc2c(n1)N(C(=O)Nc1ccccn1)[C@H]1CCN2C1 [Example 208, (4S)—N5-(pyridin-2-yl)-N7-(((S)-tetrahydrofuran-2-yl)methyl)-3,4-dihydro-1,4-methanopyrido[2,3-b][1,4]diazepine-5,7(2H)-dicarboxamide]	> 150%	B (EC1.5 1-25 μM)
C[C@@H](NC(=O)c1ccc2c(n1)N(C(=O)Nc1cc(C(=O)O)ccn1)[C@H]1CCN2C1)C(F)(F)F [Example 225, 2-((4S)-7-(((R)-1,1,1-trifluoropropan-2-yl)carbamoyl)-2,3,4,5-tetrahydro-1,4-methanopyrido[2,3-b][1,4]diazepine-5-carboxamido)isonicotinic acid]	> 150%	B (EC1.5 1-25 μM)
Cc1ncc(-c2ccnc(NC(=O)N3c4nc(C(=O)NCC(F)(F)F)ccc4N4CC[C@H]3C4)c2)o1 [Example 115, (4S)—N5-(4-(2-methyloxazol-5-yl)pyridin-2-yl)-N7-(2,2,2-trifluoroethyl)-3,4-dihydro-1,4-methanopyrido[2,3-b][1,4]diazepine-5,7(2H)-dicarboxamide]	> 150%	A (EC1.5<1 μM)
C[C@@H](NC(=O)c1ccc2c(n1)N(C(=O)Nc1cccn(C)c1=O)[C@H]1CCN2C1)C(F)(F)F [Example 98, (4S)—N5-(1-methyl-2-oxo-1,2-dihydropyridin-3-yl)-N7-((R)-1,1,1-trifluoropropan-2-yl)-3,4-dihydro-1,4-methanopyrido[2,3-b][1,4]diazepine-5,7(2H)-dicarboxamide]	> 150%	A (EC1.5<1 μM)
O=C(NC1CC1)c1ccc2c(n1)N(C(=O)Nc1ccc(Cl)cn1)[C@H]1CCN2C1 [Example 67, (4S)—N5-(5-chloropyridin-2-yl)-N7-cyclopropyl-3,4-dihydro-1,4-methanopyrido[2,3-b][1,4]diazepine-5,7(2H)-dicarboxamide]	> 150%	B (EC1.5 1-25 μM)
C[C@@H](NC(=O)c1ccc2c(n1)N(C(=O)Nc1cc(CCC(O)CO)ccn1)[C@H]1CCN2C1)C(F)(F)F (single isomer, unassigned) [Example 302]	< 150%	A (EC1.5<1 μM)
CC(C#N)NC(=O)c1ccc2c(n1)N(C(=O)Nc1ccccn1)[C@H]1CCN2C1 (single isomer, unassigned) [Example 103]	–	A (EC1.5<1 μM)
Cc1ncc(-c2ccnc(NC(=O)N3c4nc(C(=O)NCC(F)(F)F)ccc4N4CC[C@H]3C4)n2)o1 [Example 157, (4S)—N5-(4-(2-methyloxazol-5-yl)pyrimidin-2-yl)-N7-(2,2,2-trifluoroethyl)-3,4-dihydro-1,4-methanopyrido[2,3-b][1,4]diazepine-5,7(2H)-dicarboxamide]	> 150%	A (EC1.5<1 μM)
C[C@@H](NC(=O)c1ccc2c(n1)N(C(=O)Nc1ncc(OC[C@@H](O)CO)cn1)[C@H]1CCN2C1)C(F)(F)F [Example 177, (4S)—N5-(5-((S)-2,3-dihydroxypropoxy)pyrimidin-2-yl)-N7-((R)-1,1,1-trifluoropropan-2-yl)-3,4-dihydro-1,4-methanopyrido[2,3-b][1,4]diazepine-5,7(2H)-dicarboxamide]	> 150%	B (EC1.5 1-25 μM)
O=C(NC1CC(F)(F)C1)c1ccc2c(n1)N(C(=O)Nc1ccccn1)[C@H]1CCN2C1 [Example 246, (4S)—N7-(3,3-difluorocyclobutyl)-N5-(pyridin-2-yl)-3,4-dihydro-1,4-methanopyrido[2,3-b][1,4]diazepine-5,7(2H)-dicarboxamide]	> 150%	A (EC1.5<1 μM)
Cc1ccc2c(NC(=O)N3c4nc(C(=O)NCC(F)(F)F)ccc4N4CC[C@H]3C4)n[nH]c2n1 [Example 64, (4S)—N5-(6-methyl-1H-pyrazolo[3,4-b]pyridin-3-yl)-N7-(2,2,2-trifluoroethyl)-3,4-dihydro-1,4-methanopyrido[2,3-b][1,4]diazepine-5,7(2H)-dicarboxamide]	> 150%	A (EC1.5<1 μM)
C[C@@H](NC(=O)c1ccc2c(n1)N(C(=O)Nc1cc(OCCN(C)C)ccn1)[C@H]1CCN2C1)C(F)(F)F [Example 268, (4S)—N5-(4-(2-(dimethylamino)ethoxy)pyridin-2-yl)-N7-((R)-1,1,1-trifluoropropan-2-yl)-3,4-dihydro-1,4-methanopyrido[2,3-b][1,4]diazepine-5,7(2H)-dicarboxamide]	> 150%	B (EC1.5 1-25 μM)
C[C@@H](NC(=O)c1ccc2c(n1)N(C(=O)Nc1n[nH]c3ncccc13)[C@H]1CCN2C1)C(F)(F)F [Example 163, (4S)—N5-(1H-pyrazolo[3,4-b]pyridin-3-yl)-N7-((R)-1,1,1-trifluoropropan-2-yl)-3,4-dihydro-1,4-methanopyrido[2,3-b][1,4]diazepine-5,7(2H)-dicarboxamide]	> 150%	A (EC1.5<1 μM)
O=C(NCc1ccccc1)c1ccc2c(n1)N(C(=O)Nc1ccccn1)[C@H]1CCN2C1 [Example 106, (4S)—N7-benzyl-N5-(pyridin-2-yl)-3,4-dihydro-1,4-methanopyrido[2,3-b][1,4]diazepine-5,7(2H)-dicarboxamide]	> 150%	A (EC1.5<1 μM)
C[C@@H](NC(=O)c1ccc2c(n1)N(C(=O)Nc1cc(-c3cnn[nH]3)ccn1)[C@H]1CCN2C1)C(F)(F)F [Example 296, (4S)—N5-(4-(1H-1,2,3-triazol-5-yl)pyridin-2-yl)-N7-((R)-1,1,1-trifluoropropan-2-yl)-3,4-dihydro-1,4-methanopyrido[2,3-b][1,4]diazepine-5,7(2H)-dicarboxamide]	< 150%	A (EC1.5<1 μM)
